Measured values: US11787850B2, “Peptidic TGF-beta antagonists” (priority 2015, dated 2023)

B1: E: CD109-based peptide (67 aa), SEQ ID NO: 20 (protein)
chain: LTKDYIDGVYDNAEYAERFMEENEGHIVDIHDFSLGSSPHVRKHFPETWIWLDTNMGSRIYQEFEVTV
modifications: Peptide E
B2: B: CD109-based peptide (100 aa), SEQ ID NO: 19 (protein)
chain: TMENVVHELELYNTGYYLGMFMNSFAVFQECGLWVLTDANLTKDYIDGVYDNAEYAERFMEENEGHIVDIHDFSLGSSPHVRKHFPETWIWLDTNMGSRIYQEFEVT
modifications: Peptide B

What was measured:
[1] = Size-exclusion chromatography on Superdex Peptide 10/300GL column; assay type: physicochemical
Procedure: Approximately 200 μg of each peptide X (40 amino acids), X-1 (28 amino acids), peptide A (161 amino acids), P11 (11 amino acids), P16 (16 amino acids), P21 (21 amino acids, P16-2 (16 amino acids, scrambled sequence control), X-3 (16 amino acids) and X-4 (11 amino acids) were dissolved in phosphate-buffered saline (PBS) and loaded onto a Superdex Peptide 10/300GL column. The column was eluted with PBS at a flow rate of 0.6 mL/min and eluents were analyzed for peptide content by measuring relative absorbance at a wavelength of 215 nm. (FIGS. 3A and 3B) The data is plotted with relative absorbance (Y-axis) against elution volume (X-axis). Peptides 1-9 are color coded (A—peptides (1) to (5); B (peptides (6) to (9)). As shown on panel A, peptide X (peptide 1, black line) elution profile indicated two major peaks at approximately 8 mL and 11 mL which correspond to molecular weights greater than 12.4 kDa. The theoretical molecular weight of peptide X is 4.7 kDa which is expected to elute from the column at approximately 15 mL. Under the conditions tested, peptide X existed as high molecular weight aggregates with minimal soluble (monomeric) form. On the other hand, P16 (peptide 5, green line) elution profile indicated a broad peak between 14-22 mL which is expected to contain peptides of between 0.1 and 6 kDa and is consistent with its theoretical molecular weight of 2.01 kDa.
FIG. 4 illustrates the standard curve used for size-exclusion chromatography of standard peptides using the Superdex Peptide 10/300 GL column (results provided in FIG. 3). A pool of standard peptides of various molecular weights (1. cytochrome c (Mr 12.384 kDa) 1 mg/mL; 2. aprotinin (Mr 6.512 kDa) 2 mg/mL; 3. vitamin B12 (Mr 1.355 kDa) 0.1 mg/mL; 4. (Gly)3 (Mr 0.189 kDa) 0.1 mg/mL; 5. Gly (Mr 0.075 kDa) 7.8 mg/mL) were subjected to size-exclusion chromatography using the Superdex Peptide 10/300 GL column (flow rate 0.5 ml/min at room temperature, sample volume of 50 μL, eluent 0.05M phosphate, 0.15 M NaCl, ph 7.0). The resulting chromatogram (absorbance at 215 nm (in mAU, left Y axis) and conductivity (in mS/cm, right Y axis, in function of volume of elution (in mL)) indicates the elution profiles of the above peptides with high MW peptides eluting in earlier fractions and lower MW peptides eluting in later fractions as expected. The molecular weights of peptides were plotted against elution volume generating a standard curve (not shown).
More specifically, approximately […] of each peptide X (40 amino acids), X-1 (28 amino acids), peptide A (161 amino acids), P11 (11 amino acids), P16 (16 amino acids), P21 (21 amino acids, P16-2 (16 amino acids, scrambled sequence control), X-3 (16 amino acids) and X-4 (11 amino acids) were dissolved in phosphate-buffered saline (PBS) and loaded onto a Superdex Peptide 10/300GL column. The column was eluted with PBS at a flow rate of 0.6 ml/min and eluants were analyzed for peptide content by measuring relative absorbance at a wavelength of 215 nm. The data were plotted with relative absorbance (Y-axis) against elution volume (X-axis). […] The theoretical molecular weight of peptide X is 4.7 kDa which is expected to elute from the column at approximately 15 mL. […] P16 (peptide 5) elution profile indicated a peak between 14-22 mL which was expected to contain peptides of between 0.1 and 6 kDa and is consistent with its theoretical molecular weight of 2.01 kDa.
More specifically, a pool of standard proteins of various molecular weights were subjected to size-exclusion chromatography using the Superdex Peptide 10/300 GL column. The resulting chromatogram indicated the elution profiles of the peptides with high molecular weight peptides eluting in earlier fractions and lower molecular weight peptides eluting in later fractions as expected. The molecular weights of peptides were plotted against elution volume generating a standard curve (not shown) and was used to calculate molecular weights of the CD109-based peptides. […]

[2] = tested on: TGF-β-induced migration of squamous cell carcinoma (A431) cells; assay: Scratch (wound closure) migration assay, A431 cells; assay type: cell-based; details: 10 nM peptide, 100 pM TGF-β1, 24 hours (FIG. 10)
Procedure: FIG. 10A and FIG. 10B illustrate that peptides B, E and X-1 inhibit TGF-β-induced cellular migration of A431 cells in vitro. Results are shown prior to treatment (0 hr, top panels) and after treatment (24 hr, bottom panels) for each of the peptides used. (See FIG. 2 and Table 1 for the amino acid sequence identity of the peptides).
A431 cells were grown to 80-90% confluence and serum-starved overnight. The next day, cells were scratched with a plastic pipette tip (time 0 hour) and then left untreated or treated for 24 hours with 100 pM TGF-β1 alone or in the presence of P16 as indicated. (FIG. 27A) Digital images were captured at 0 h and 24 h using an EVOS XL Core microscope. (FIG. 27B) Micrographs were subsequently quantitated to determine the percentage of the wound area that had closed following 24 hours in the presence or absence of P16, as indicated.
Cells were scratched with a pipette tip and treated without or with 100 pM TGF-b1 alone or in the presence of 10 nM Peptide A or Peptide A1 (C31S mutant). Pictures were taken at 0 and 24 hrs. Peptide A but not Peptide A1 inhibits TGF-b-induced migration in A431 cells. Peptide A contains monomeric and dimeric forms whereas Peptide A1 contains a C31S mutation to prevent intermolecular disulfide bond formation so that it forms monomers only.
(§1) Squamous cell carcinoma (A431) or breast cancer (MDA-MB-231) cells were grown to 80-90% confluence and serum-starved overnight. The next day, cells were scratched with a plastic pipette tip (time 0 hour) and then left untreated or treated for 24 hours with 100 pM TGF-β1 alone or in the presence of 10 nM peptide B (100 aa), E (67 aa), or X1 (P28, 28 aa). Digital images were captured at 0 h and 24 h (20× magnification) using an EVOS XL Core microscope.

[3] = tested on: TGF-β-induced migration of breast cancer (MDA-MB-231) cells; assay: Scratch migration assay, MDA-MB-231 cells; assay type: cell-based; details: 10 nM peptide, 100 pM TGF-β1, 24 hours (FIG. 11)
Procedure: FIG. 11A and FIG. 11B illustrate that peptides B, E and X-1 inhibit TGF-β-induced cellular migration of MDA-MB-231 cells in vitro. Results are shown prior to treatment (0 hr, top panels) and after treatment (24 hr, bottom panels) for each of the peptides used.
as §1

[4] = tested on: TGF-β1-induced Smad3-driven (CAGA12-lux) transcriptional activity; assay: Luciferase reporter assay in HEK293-(CAGA)12 cells; assay type: cell-based; details: 10 nM or 5 nM peptide, 100 pM TGF-β1, 18 hours (FIG. 5)
[5] = tested on: TGF-β-induced EMT in HaCaT cells; assay: Immunofluorescence of F-actin and E-cadherin in HaCaT cells with pathway inhibitors; assay type: cell-based, human; details: for effect mediated by CD109 siRNA transfection on actin stress fibers appearance and relocalization of E-cadherin / effect on EMT markers in the absence of TGF-β: 0.5 μM SB431542, 1 μM SB203580, 10 μM U0126; for effect on EMT markers in the absence of TGF-β: data not shown
[6] = tested on: TGF-β-induced fibronectin and Slug expression in HaCaT cells; assay: Western blot for fibronectin and Slug in HaCaT cells with pathway inhibitors; assay type: cell-based, human; details: for effect of CD109 knock-down on TGF-β-induced Slug expression: 100 pM TGF-β1, 4 hrs, 0.5 μM SB431542, 10 μM U0126; for fibronectin production: CD109 siRNA HaCaT cells, 100 pM TGF-β1, 16 hrs, 0.5 μM SB431542, 1 μM SB203580, 10 μM U0126
[7] = tested on: TGF-β-induced migration of HaCaT cells; assay: Scratch assay in HaCaT cells with pathway inhibitors; assay type: cell-based, human; details: 100 pM TGF-β1, 36 hrs; 0.5 μM SB431542, 1 μM SB203580, 10 μM U0126
Procedure: (FIG. 18A) HaCaT cells transfected with control or CD109 siRNA were scratched and treated with or without 100 pM TGF-β1, 0.5 μM SB431542, 1 μM SB203580 and/or 10 μM U0126 for 36 hrs. Dotted line: wound margin at 0 hr, regular line: wound margin at 36 hrs.
Confluent monolayers of HaCaT or A431 cells were wounded by scrapping the cells with a 200 μl pipette tip. Cells were then incubated with 100 pM TGF-β1, in presence or absence of 10 μM U0126, 1 μM SB203580, 0.5 μM SB431542 in serum free medium for 24-48 hrs. Pictures were taken at the same spot at 0 hr, 24 hrs and 48 hrs. The cell-free area (wound) area was measured using ImageJ™ software and the percentage of original wound area filled with keratinocytes was calculated. At least 3 independents series of experiments were performed in triplicates.
Finally, it was determined whether CD109's effect on migration was also mediated by the SMAD2/3 and MAPK pathways.

[8] = tested on: TGF-β-induced epithelial-mesenchymal transition (EMT) response in squamous cell carcinoma (A431) cells; assay: Immunoblot of EMT markers in A431 cells; assay type: cell-based; details: 10 nM peptide, 100 pM TGF-b, 24 hrs (FIG. 33)
Procedure: (FIG. 26A) Immunoblot analysis was carried out using cell lysates of A431 cells following incubation with TGF-β, P16, or scrambled control (P16.2) as indicated to determine expression of proteins involved in the EMT response. (FIG. 26B) Densitometry analysis was subsequently performed using the developed immunoblot to illustrate the relative expression of each protein as a function as P16 concentration as indicated.
A431 cancer cells treated with 10 nM of P16.2 (negative peptide control), P12, P16 or PA in the absence or presence of 100 pM TGF-b, followed by 24 hrs of incubation. Cells lysates were analyzed by Western blot for the expression of Fibronectin (mesenchymal marker), Snail and Twist (EMT markers). Actin expression was used as loading control.

Molecule | inhibition of TGF-β-induced cellular migration of A431 cells [2] | inhibition of TGF-β-induced cellular migration of MDA-MB-231 cells [3] | effect mediated by CD109 siRNA transfection on actin stress fibers appearance and relocalization of E-cadherin ([5]; 100 pM TGF-β1, 36 hrs) | effect on EMT markers in the absence of TGF-β [5] | fibronectin production [6] | other results
ETWIWLDTNMGSRIYQEFEVTVPDSITS (Peptide X-1) | inhibit | inhibit | – | – | – | formation of aggregates by size-exclusion chromatography ([1]; peptide in PBS, Superdex Peptide 10/300GL, 0.6 ml/min): formed aggregates; Aggregation? ([1]; size-exclusion chromatography, peptide dissolved in PBS): Aggregated; inhibition of TGF-β1-induced CAGA12-lux activity [4]: inhibited
N#CC(=C(/N)Sc1ccccc1N)/C(C#N)=C(\N)Sc1ccccc1N [Peptide U0126, U0126] | – | – | reduces (but does not abrogate) | no effect | reduced | effect of CD109 knock-down on TGF-β-induced Slug expression [6]: abrogated; increase of TGF-β-induced cell migration by CD109 knock-down [7]: partially reversed
C[S+]([O-])c1ccc(-c2nc(-c3ccncc3)c(-c3ccc(F)cc3)[nH]2)cc1 (stereo not shown) [SB203580] | – | – | reduces (but does not abrogate) | no effect | reduced | Slug expression ([6]; control siRNA and CD109 siRNA HaCaT cells, absence or presence of TGF-β, 1 μM SB203580): increases
NC(=O)c1ccc(-c2nc(-c3ccc4c(c3)OCO4)c(-c3ccccn3)[nH]2)cc1 [SB431542] | – | – | reduces (but does not abrogate) | no effect | totally abrogated | appearance of actin stress fibers in control siRNA transfected cells ([5]; 100 pM TGF-β1, 36 hrs, 0.5 μM SB431542): totally prevents; effect of CD109 knock-down on TGF-β-induced Slug expression [6]: abrogated; increase of TGF-β-induced cell migration by CD109 knock-down [7]: partially reversed
ETWIWLDTNMGS [Peptide P12] | – | – | – | – | – | inhibition of TGF-b induced EMT response (Fibronectin, Snail, Twist) [8]: not
B1 | inhibit | inhibit | – | – | – | –
B2 | inhibit | inhibit | – | – | – | –
